Experiments:
wheat powdery mildew = assay: protectant activity in vivo against wheat powdery mildew; conditions: Triticum aestivum, 168 h; for pest or weed control at 400 µg/mL: read-out: control effect against wheat powdery mildew (%), 400 mg/L; for pest or weed control at 6.25 µg/mL: read-out: control effect against wheat powdery mildew (%), 6.25 mg/L; for pest or weed control at 25 µg/mL: read-out: control effect against wheat powdery mildew (%), 25 mg/L; for pest or weed control at 100 µg/mL: read-out: control effect against wheat powdery mildew (%), 100 mg/L
Diamond back moth = assay: insecticidal activity against diamond back moth, airbrush spray; assay type: in vivo; conditions: 72 h; for pest or weed control at 600 µg/mL: 600 mg/L
Summary of the method: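 Airbrush leaf-disc spray test: both faces of 2 cm cabbage discs received 0.5 ml of test solution at 0.7 kg/cm^2. Solutions were made in acetone:methanol (1:1) and brought to concentration with 0.1% Tween 80 in water. Ten second-instar larvae per disc, triplicates, were held at 25° C and 60˜70% R.H., with mortality recorded at 72 hrs.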

armyworm = assay: bioactivity test against armyworm, airbrush spray; assay type: in vivo; conditions: 72 h; for pest or weed control at 600 µg/mL: 600 mg/L, read-out: Insecticidal activity against armyworm (%)
cucumber downy mildew = assay: protectant activity in vivo against cucumber downy mildew; conditions: Cucumis sativus, 168 h; for pest or weed control at 400 µg/mL: read-out: control effect against cucumber downy mildew (%), 400 mg/L; for pest or weed control at 400 µg/mL / pest or weed control at 25 µg/mL / pest or weed control at 50 µg/mL / pest or weed control at 100 µg/mL: protectant activity; for pest or weed control at 25 µg/mL: read-out: control effect against cucumber downy mildew (%), 25 mg/L; for pest or weed control at 50 µg/mL: read-out: control effect against cucumber downy mildew (%), 50 mg/L; for pest or weed control at 100 µg/mL: read-out: control effect against cucumber downy mildew (%), 100 mg/L
[1] = tested on: Green peach aphids (Myzus Persicae Sulzer); assay: bioactivity test against green peach aphid, airbrush foliar spray; assay type: in vivo; conditions: Myzus persicae, foliar, 48 h; for pest or weed control at 600 µg/mL: 600 mg/L; for pest or weed control at 600 µg/mL / pest or weed control at 10 µg/mL / pest or weed control at 100 µg/mL: contrastive test, read-out: Insecticidal activity against peach aphid (%); for pest or weed control at 10 µg/mL: 10 mg/L; for pest or weed control at 100 µg/mL: 100 mg/L
Summary of the method: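 Aphids (15-30 per cabbage leaf disc) on moist filter paper were airbrush-sprayed at 10 psi, 0.5 mL, with compound from acetone:methanol (1:1) diluted in water with 0.1% tween 80. Held at 25±1 C, 60±5% RH; survivors counted after 48 hrs to give death rates.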

cucumber gray mold = assay: fungicidal activity in vitro (inhibition rate) against cucumber gray mold; assay type: cell-based; conditions: 25 ppm, in vitro; read-out: inhibition rate against cucumber gray mold
corn rust = assay: protectant activity in vivo against corn rust; conditions: Zea mays, 168 h; for pest or weed control at 400 µg/mL: read-out: control effect against corn rust (%), 400 mg/L; for pest or weed control at 6.25 µg/mL: read-out: control effect against corn rust (%), 6.25 mg/L; for pest or weed control at 25 µg/mL: read-out: control effect against corn rust (%), 25 mg/L; for pest or weed control at 100 µg/mL: read-out: control effect against corn rust (%), 100 mg/L
carmine spider mite = assay: bioactivity test against carmine spider mite, airbrush spray; assay type: in vivo; conditions: Tetranychus cinnabarinus, 72 h; for pest or weed control at 600 µg/mL: 600 mg/L, contrastive test, read-out: Insecticidal activity against carmine spider mite (% )
Summary of the method: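 Broadbean seedlings infested with adult mites were sprayed with compound (acetone/methanol stock diluted in 0.1% Tween 80 water) by airbrush at 0.7 kg/cm^2, 0.5 ml. Three replicates were run. Mortality was scored after 72 hrs.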

SMILES | pest or weed control at 400 µg/mL (wheat powdery mildew; protectant activity) [%] | pest or weed control at 600 µg/mL (Diamond back moth) [%] | pest or weed control at 600 µg/mL (armyworm) [%] | pest or weed control at 400 µg/mL (cucumber downy mildew) [%] | pest or weed control at 600 µg/mL [1] [%] | inhibition at 25 ppm (cucumber gray mold) [%] | pest or weed control at 400 µg/mL (corn rust; protectant activity) [%] | pest or weed control at 600 µg/mL (carmine spider mite) [%] | pest or weed control at 10 µg/mL [1] [%] | pest or weed control at 100 µg/mL [1] [%] | pest or weed control at 6.25 µg/mL (wheat powdery mildew; protectant activity) [%] | pest or weed control at 25 µg/mL (wheat powdery mildew; protectant activity) [%] | pest or weed control at 100 µg/mL (wheat powdery mildew; protectant activity) [%] | pest or weed control at 6.25 µg/mL (corn rust; protectant activity) [%] | pest or weed control at 25 µg/mL (corn rust; protectant activity) [%] | pest or weed control at 100 µg/mL (corn rust; protectant activity) [%] | further results
CCc1ncnc(NC(=O)Cc2ccc(Oc3ccc(C(F)(F)F)cc3Cl)cc2)c1Cl [CK57, reference compound] | 0 | 0 | 0 | 50 | 61 | < 50 | 0 | 33 |  |  |  |  |  |  |  |  | 
Cc1nc(Cl)cc(NCCc2ccc(Oc3ccc(C(F)(F)F)cn3)cc2)n1 [CK67, reference compound] | 0 | 14 | 0 | 100 | 86 | 0 | 0 | 61 | 0 | 54 |  |  |  |  |  |  | pest or weed control at 25 µg/mL (cucumber downy mildew): 0%; pest or weed control at 50 µg/mL (cucumber downy mildew): 20%; pest or weed control at 100 µg/mL (cucumber downy mildew): 60%
Cc1nc(Cl)cc(NCCc2ccc(Oc3ncc(C(F)(F)F)cc3Cl)cc2)n1 [CK68, reference compound] | 0 | 14 | 0 | 0 | 0 | 0 | 0 | 4 |  |  |  |  |  |  |  |  | 
FC(F)(F)c1cnc(Oc2ccc(CCNc3cc(Cl)ncn3)cc2)c(Cl)c1 [CK70, reference compound] | 98 | 0 | 0 | 100 | 81 | 0 | 100 | 13 | 0 | 0 | 0 | 0 | 0 | 0 | 10 | 30 | pest or weed control at 25 µg/mL (cucumber downy mildew): 0%; pest or weed control at 50 µg/mL (cucumber downy mildew): 30%; pest or weed control at 100 µg/mL (cucumber downy mildew): 60%
CCOC(=O)c1ccc(Oc2ccc(CCNc3cc(Cl)ncn3)cc2)nc1 [CK74, reference compound] | 0 | 0 | 0 | 50 | 100 | 0 | 100 | 0 | 26 | 100 |  |  |  | 85 | 90 | 100 | 
CCOC(=O)c1ccc(Oc2ccc(CCNc3nc(Cl)ncc3Cl)cc2)nc1 [CK75, reference compound] | 0 | 0 | 0 | 60 | 100 | 0 | 0 | 0 | 0 | 0 |  |  |  |  |  |  | 
CCOC(=O)c1ccc(Oc2ccc(CCNc3cc(Cl)nc(C)n3)cc2)nc1 [CK76, reference compound] | 75 | 0 | 0 | 0 | 52 | 0 | 70 | 41 |  |  |  |  |  |  |  |  | 
COC(=O)c1ccc(Oc2ccc(CCNc3cc(Cl)ncn3)cc2)nc1 [CK77, reference compound] | 100 | 0 | 0 | 0 | 72 | 0 | 100 | 56 |  |  | 70 | 80 | 100 | 0 | 40 | 60 | 
COC(=O)c1ccc(Oc2ccc(CCNc3nc(Cl)ncc3Cl)cc2)nc1 [CK78, reference compound] | 0 | 0 | 0 | 0 | 0 | 0 | 0 | 17 |  |  |  |  |  |  |  |  | 
COC(=O)c1ccc(Oc2ccc(CCNc3cc(Cl)nc(C)n3)cc2)nc1 [CK79, reference compound] | 0 | 0 | 0 | 85 | 100 | 0 | 0 | 27 | 0 | 16 |  |  |  |  |  |  | 
FC(F)(F)c1cccnc1Oc1ccc(CCNc2cc(Cl)ncn2)cc1 [CK80, reference compound] | 100 | 0 | 0 | 85 | 87 | 0 | 100 | 6 | 16 | 40 | 0 | 0 | 80 | 0 | 20 | 85 | 
CCc1ncnc(NCCc2ccc(Oc3cc(Cl)cc(Cl)c3)cc2)c1Cl [II-303] | 100 |  |  |  |  | 100 | 100 |  |  |  | 90 | 100 | 100 | 100 | 100 | 100 | pest or weed control at 0.4 µg/mL (wheat powdery mildew; read-out: control effect against wheat powdery mildew (%), 0.4 mg/L, protectant activity): 25%; pest or weed control at 1.6 µg/mL (wheat powdery mildew; read-out: control effect against wheat powdery mildew (%), 1.6 mg/L, protectant activity): 80%; pest or weed control at 6.25 ppm (wheat powdery mildew; read-out: protectant activity against wheat powdery mildew in vivo, 6.25 ppm): 80 to 99%; pest or weed control at 25 ppm (wheat powdery mildew; read-out: protectant activity against wheat powdery mildew in vivo, 25 ppm): 100%; pest or weed control at 100 ppm (wheat powdery mildew; read-out: protectant activity against wheat powdery mildew in vivo, 100 ppm): 100%; pest or weed control at 400 ppm (wheat powdery mildew; read-out: protectant activity against wheat powdery mildew in vivo, 400 ppm): 100%; pest or weed control at 600 ppm (Diamond back moth; 600 ppm, mortality after 72 hrs, read-out: control (test results against diamond back moth)): 80 to 99%; pest or weed control at 600 ppm (armyworm; 600 ppm, mortality after 72 h): 80 to 99%; pest or weed control at 100 ppm (cucumber downy mildew; read-out: protectant activity against cucumber downy mildew in vivo, 100 ppm): 80 to 99%; pest or weed control at 400 ppm (cucumber downy mildew; read-out: protectant activity against cucumber downy mildew in vivo, 400 ppm): 100%; pest or weed control at 100 ppm ([1]; 100 ppm, death rate after 48 hrs): 100%; pest or weed control at 600 ppm ([1]; 600 ppm, death rate after 48 hrs): 100%; pest or weed control at 0.4 µg/mL (corn rust; read-out: control effect against corn rust (%), 0.4 mg/L, protectant activity): 50%; pest or weed control at 1.6 µg/mL (corn rust; read-out: control effect against corn rust (%), 1.6 mg/L, protectant activity): 80%; pest or weed control at 6.25 ppm (corn rust; read-out: protectant activity against corn rust in vivo, 6.25 ppm): 100%; pest or weed control at 25 ppm (corn rust; read-out: protectant activity against corn rust in vivo, 25 ppm): 100%; pest or weed control at 100 ppm (corn rust; read-out: protectant activity against corn rust in vivo, 100 ppm): 100%; pest or weed control at 400 ppm (corn rust; read-out: protectant activity against corn rust in vivo, 400 ppm): 100%; pest or weed control at 600 ppm (carmine spider mite; 600 ppm, mortality after 72 hrs): 100%

Reference: patent US9770026B2, “Substituted pyrimidine compound and uses thereof” (Shenyang Sinochem Agrochemicals R&D Co., Ltd., priority 2012, dated 2017)
